SMILES strings stand for the structures.

One experiment has as its target T1, Caspase-1 (Homo sapiens, UniProt P29466).
T1 construct: purchased Enzo Biosciences
T1 sequence (P29466 120-297 limits assumed): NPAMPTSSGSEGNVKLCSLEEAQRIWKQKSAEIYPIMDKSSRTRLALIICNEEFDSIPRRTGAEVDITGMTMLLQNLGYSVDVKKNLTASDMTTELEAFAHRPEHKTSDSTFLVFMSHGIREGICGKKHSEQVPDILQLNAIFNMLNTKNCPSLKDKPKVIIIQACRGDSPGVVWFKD
T1 sequence (P29466 317-404 limits assumed): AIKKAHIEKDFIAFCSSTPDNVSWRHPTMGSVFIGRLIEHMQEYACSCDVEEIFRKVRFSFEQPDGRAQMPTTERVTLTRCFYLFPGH
The experiment in a line: Caspase-1 enzyme inhibition assay (Ac-YVAD-pNA substrate), IC50. Format: biochemical. As for the experimental part: (§1) Human caspases were purchased from Enzo Biosciences and used according to the manufacturer's instructions. An exemplary caspase assay, for Caspase-1, is provided below:
Caspase-1 was diluted to 10 U/μl in assay buffer consisting of 50 mM HEPES, pH 7.4, 100 mM NaCl, 0.1% CHAPS, 1 mM EDTA, 10% glycerol and 10 mM DTT.
45 μl of assay buffer was added into ½ volume microtiter plate. The plate was allowed to equilibrate to assay temperature. 5 μl of Caspase-1 (10 U/μl) was added to each appropriate well. Two 2 blank wells containing assay buffer alone without Caspase-1 were included on the plate.
The reaction was started by the addition of 50 μl Ac-YVAD-pNA substrate, for a final substrate concentration of 200 μM. The reaction was continuously monitored at 405 nm. The data was graphed as OD405 nm vs time, and the slope was determined over the linear portion of the curve. The rates in OD/min were converted to substrate/min using an extinction coefficient for p-nitroaniline of 10,500M-1 cm-1, and were adjusted for pathlength of sample. […]

A further experiment concerns the target T2, Caspase-3 (Homo sapiens, UniProt P42574).
T2 construct: purchased Enzo Biosciences
T2 sequence (P42574 29-175 limits assumed): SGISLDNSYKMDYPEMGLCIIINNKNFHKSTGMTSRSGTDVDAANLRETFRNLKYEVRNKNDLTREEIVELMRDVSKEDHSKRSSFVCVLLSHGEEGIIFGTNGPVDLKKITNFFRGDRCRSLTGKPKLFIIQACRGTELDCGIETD
T2 sequence (P42574 176-277 limits assumed): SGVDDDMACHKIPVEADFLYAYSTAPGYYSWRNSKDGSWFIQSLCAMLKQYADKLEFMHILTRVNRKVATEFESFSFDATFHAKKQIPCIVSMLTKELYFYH
The experiment in a line: Caspase-3 enzymatic inhibition assay, IC50. To be noted: read-out: Caspase 3 enzyme inhibition IC50. Format: biochemical. As to the method: as §1
(§2) Enzymatic assays were conducted for Caspase-3, 6 and 7 activity according to the manufacture's instructions.

For a further experiment, the target named is T3, Caspase 6 (Homo sapiens, UniProt P55212).
T3 construct: purchased Enzo Biosciences
T3 sequence (P55212 24-179 limits assumed): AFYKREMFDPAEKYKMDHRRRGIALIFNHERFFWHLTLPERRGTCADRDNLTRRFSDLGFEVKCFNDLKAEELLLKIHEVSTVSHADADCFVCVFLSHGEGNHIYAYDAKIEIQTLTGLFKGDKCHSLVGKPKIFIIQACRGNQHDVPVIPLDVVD
T3 sequence (P55212 194-293 limits assumed): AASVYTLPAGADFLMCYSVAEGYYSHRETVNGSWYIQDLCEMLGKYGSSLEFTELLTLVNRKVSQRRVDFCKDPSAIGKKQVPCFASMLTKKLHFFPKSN
The experiment can be described thus: Caspase 6 enzymatic inhibition assay, IC50. Format: biochemical. The conditions noted are these: read-out: Caspase 6 enzyme inhibition IC50. As to the method:
as §1, §2

A further experiment deals with IL-1β. The experiment can be described thus: Inhibition of LPS-stimulated IL-1β in THP-1 cells (ELISA). Format: cell-based, human. The conditions noted are these: Homo sapiens, 10 micromolar, read-out: Percent Inhibition of IL1-β. As to the method:
Compounds in the present invention were tested in THP-1 cells, a human monocyte cell line, to assess the inhibition of the inflammatory cytokine IL-1β. THP-1 cells (ATCC TIB-202) were grown in culture and seeded in 96 well plates at a concentration of 200,000 cells per well with a total volume of 150 μL. Plated cells were incubated overnight at 37 degrees C. under an atmosphere of 5% CO2. Media was removed from cells which were washed with PBS. Test compounds were diluted in DMSO stock solution and serially diluted appropriately for initial screening and IC50 determinations. LPS in serum free media (140 μL of […]) was added to each well to stimulate IL-1β production. IL-1β was measured by ELISA assay kit (R&D Systems) per the manufacturers instructions.
IC50 values for the inhibition of IL-1 in THP 1 cells were determined from dose response studies.

A further experiment concerns Jurkat cells. The experiment in a line: Prevention of Fas-induced apoptosis in Jurkat cells (WST-8). Format: cell-based. To be noted: Homo sapiens, 10 micromolar, read-out: % Prevention of Fas - induced Jurkat cell apoptosis at 10 micromolar. As for the experimental part: Compounds of the present invention were evaluated in Jurkat cells, a human T-lymphocyte cell line, to evaluate compounds ability to inhibit apoptotic cell death. Jurkat cells, Clone E6-1 (ATCC TIB-152) were grown in culture maintain a cell density between 0.5-2 million cells/mL. Cells were tested for viability and countion with typan blue stain before use. Test compounds were addedd to 96 well plates and Jurkat cells were added at a concentration of approximately 100,000 cells per well and mixed thoroughly by action of pipetting. Plated cells were incubated for 1 hour at 37 degrees C. under an atmosphere of 5% CO2. Anti-Fas antibody was added and mixed by pipet action. Plates were incubated for 20 hours at 37 degrees C. under an atmosphere of 5% CO2. 10 microliters of thawed WST-8 solution was added to each well and incubated for 4 hours. Absorbance was measured at 450 nm and control reading at […] using a SpectraMax ID5 plate reader. Apoptotic cell death is executed by caspases 3, 7 and 6. Compounds that lack activity against these caspases will not prevent the death of Jurkat cells and is a functional test of selectivity for inflammatory over apoptotic caspases.
IC50 values to protect against Fas induced apoptosis and improve survival of Jurkat cells were determined from dose response studies.
A general note: Tetrazolium assays rely on reduction of a dye to a coloured formazan, in cell work by metabolically active cells.

The target in another experiment is T4, Caspase 7 (Homo sapiens, UniProt P55210).
T4 construct: purchased Enzo Biosciences
T4 sequence (P55210 24-198 limits assumed): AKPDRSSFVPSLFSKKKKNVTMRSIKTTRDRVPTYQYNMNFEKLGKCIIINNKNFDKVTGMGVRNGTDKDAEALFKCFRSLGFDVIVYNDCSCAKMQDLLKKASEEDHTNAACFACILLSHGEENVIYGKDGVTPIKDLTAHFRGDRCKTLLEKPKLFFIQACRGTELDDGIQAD
T4 sequence (P55210 207-303 limits assumed): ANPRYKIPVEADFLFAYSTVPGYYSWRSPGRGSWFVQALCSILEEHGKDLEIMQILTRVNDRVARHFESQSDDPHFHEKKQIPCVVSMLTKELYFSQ
The experiment can be described thus: Caspase 7 enzymatic inhibition assay, IC50. Format: biochemical. To be noted: read-out: Caspase 7 enzyme inhibition IC50. As for the experimental part: as §1, §2

One may read the IC50 as the concentration that inhibits the measured activity by half. In the case of `C[C@H](NC(=O)C(=O)Nc1c(F)cccc1F)C(=O)N[C@@H](CCOCc1ccccc1)C(=O)COc1c(F)c(F)cc(F)c1F` [Example 1, N^1-((S)-1-(((S)-5-(Benzyloxy)-2-oxo-1-(2,3,5,6-tetrafluorophenoxy)pentan-3-yl)amino)-1-oxopropan-2-yl)-N^2-(2,6-difluorophenyl)oxalamide], the IC50 against Caspase-1 is 0.01 to 0.1 µM; on Caspase-3, not below 1 µM; on Caspase 6 it was not below 1 µM; on Caspase 7 it was not below 1 µM. Further, the inhibition at 10 µM in the experiment on IL-1β is 50 to 90%; with Jurkat cells it was not above 10%.

As to `C[C@H](NC(=O)C(=O)Nc1c(F)cccc1F)C(=O)N[C@@H](CCO)C(=O)COc1c(F)c(F)cc(F)c1F` [Example 2, N^1-(2,6-Difluorophenyl)-N^2—((S)-1-(((S)-5-hydroxy-2-oxo-1-(2,3,5,6-tetrafluorophenoxy)pentan-3-yl)amino)-1-oxopropan-2-yl)oxalamide], the IC50 against Caspase-1 is 0.01 to 0.1 µM; at Caspase-3, not below 1 µM; on Caspase 6, not below 1 µM; at Caspase 7, not below 1 µM. Besides, the inhibition at 10 µM is 50 to 90% in the experiment with IL-1β and not above 10% in the experiment on Jurkat cells.

As to `C[C@H](NC(=O)C(=O)Nc1c(F)cccc1F)C(=O)N[C@@H](CCOCc1ccc(Cl)cc1)C(=O)COc1c(F)c(F)cc(F)c1F` [Example 3, N^1—((S)-1-(((S)-5-((4-Chlorobenzyl)oxy)-2-oxo-1-(2,3,5,6-tetrafluorophenoxy)pentan-3-yl)amino)-1-oxopropan-2-yl)-N^2-(2,6-difluorophenyl)oxalamide], the IC50 on Caspase-1 was 0.1 to 1 µM; on Caspase-3, not below 1 µM; on Caspase 6, not below 1 µM; at Caspase 7, not below 1 µM. Moreover, the inhibition at 10 µM in the experiment on IL-1β is 25 to 50%; in the experiment with Jurkat cells, not above 10%.

With `C[C@H](NC(=O)C(=O)Nc1c(F)cccc1F)C(=O)N[C@@H](CCOCc1ccsc1)C(=O)COc1c(F)c(F)cc(F)c1F` [Example 4, N^1-(2,6-difluorophenyl)-N^2—((S)-1-oxo-1-(((S)-2-oxo-1-(2,3,5,6-tetrafluorophenoxy)-5-(thiophen-3-ylmethoxy)pentan-3-yl)amino)propan-2-yl)oxalamide], the IC50 was 0.01 to 0.1 µM against Caspase-1, not below 1 µM at Caspase-3, not below 1 µM at Caspase 6 and not below 1 µM on Caspase 7. Besides, the inhibition at 10 µM with IL-1β was 50 to 90%; in the experiment on Jurkat cells, not above 10%.

For the compound `COCC[C@H](NC(=O)[C@H](C)NC(=O)C(=O)Nc1c(F)cccc1F)C(=O)COc1c(F)c(F)cc(F)c1F` [Example 5, N^1-(2,6-Difluorophenyl)-N^2—((S)-1-(((S)-5-methoxy-2-oxo-1-(2,3,5,6-tetrafluorophenoxy)pentan-3-yl)amino)-1-oxopropan-2-yl)oxalamide], the IC50 is 0.1 to 1 µM on Caspase-1, not below 1 µM at Caspase-3, not below 1 µM at Caspase 6 and not below 1 µM on Caspase 7. In addition, the values for the inhibition at 10 µM in the experiment with IL-1β and in the experiment on Jurkat cells were 25 to 50% and not above 10%, respectively.

Regarding `C[C@H](NC(=O)C(=O)Nc1c(F)cccc1F)C(=O)N[C@@H](CCOC(=O)Oc1ccccc1)C(=O)COc1c(F)c(F)cc(F)c1F` [Example 7, (S)-3-((S)-2-(2-((2,6-Difluorophenyl)amino)-2-oxoacetamido)propanamido)-4-oxo-5-(2,3,5,6-tetrafluorophenoxy)pentyl phenyl carbonate], the IC50 on Caspase-1 was 0.01 to 0.1 µM; at Caspase-3 it was not below 1 µM; on Caspase 6, not below 1 µM; on Caspase 7, not below 1 µM. Besides, the values for the inhibition at 10 µM in the experiment with IL-1β and in the experiment with Jurkat cells were 50 to 90% and not above 10%, respectively.

With `C[C@H](NC(=O)C(=O)Nc1c(F)cccc1F)C(=O)N[C@@H](CCOC(=O)c1ccccc1)C(=O)COc1c(F)c(F)cc(F)c1F` [Example 8, (S)-3-((S)-2-(2-((2,6-Difluorophenyl)amino)-2-oxoacetamido)propanamido)-4-oxo-5-(2,3,5,6-tetrafluorophenoxy)pentyl benzoate], the IC50 on Caspase-1 was 0.1 to 1 µM; at Caspase-3, not below 1 µM; on Caspase 6, not below 1 µM; on Caspase 7, not below 1 µM. Moreover, the figures for the inhibition at 10 µM in the experiment on IL-1β and in the experiment with Jurkat cells were 25 to 50% and not above 10%, respectively.

On to `O=C(O)CC[C@H](NC(=O)CNC(=O)C(=O)Nc1c(F)cccc1F)C(=O)COc1c(F)c(F)cc(F)c1F` [Example 9, (S)-4-(2-(2-((2,6-difluorophenyl)amino)-2-oxoacetamido)acetamido)-5-oxo-6-(2,3,5,6-tetrafluorophenoxy)hexanoic acid], for which the IC50 was not above 0.01 µM on Caspase-1, not below 1 µM on Caspase-3, not below 1 µM at Caspase 6 and not below 1 µM at Caspase 7. For the same compound, the inhibition at 10 µM in the experiment on IL-1β was more than 90%; in the experiment with Jurkat cells it was not above 10%.

In the case of `C[C@H](NC(=O)C(=O)Nc1c(F)cccc1F)C(=O)N[C@@H](CCC(=O)O)C(=O)COc1cc(C(F)(F)F)cc(C(F)(F)F)c1` [Example 10, (S)-6-(3,5-bis(trifluoromethyl)phenoxy)-4-((S)-2-(2-((2,6-difluorophenyl)amino)-2-oxoacetamido)propanamido)-5-oxohexanoic acid], the IC50 was not above 0.01 µM at Caspase-1, not below 1 µM on Caspase-3, not below 1 µM on Caspase 6 and not below 1 µM at Caspase 7. In addition, the inhibition at 10 µM with IL-1β was more than 90%; in the experiment on Jurkat cells it was not above 10%.

`C[C@H](NC(=O)C(=O)Nc1ccccc1C(C)(C)C)C(=O)N[C@@H](CCC(=O)O)C(=O)COc1c(F)c(F)cc(F)c1F` [Example 11, (S)-4-((S)-2-(2-((2-(tert-Butyl)phenyl)amino)-2-oxoacetamido)propanamido)-5-oxo-6-(2,3,5,6-tetrafluorophenoxy)hexanoic acid]: the concentration for half-maximal inhibition (IC50) at Caspase-1 is not above 0.01 µM; on Caspase-3, not below 1 µM; at Caspase 6, not below 1 µM; at Caspase 7, 0.1 to 1 µM. The figures for the inhibition at 10 µM in the experiment with IL-1β and in the experiment with Jurkat cells were more than 90% and not above 10%, respectively.

The values are drawn from patent publication US11597703B2, “Caspase inhibitors and methods of use thereof” (Histogen Inc., priority 2019, dated 2023).
